Test results: PubChem BioAssay AID2165 (The Scripps Research Institute Molecular Screening Center, 2009)
Calls of active or inactive are those of the source. Cut-off read from the data, not from the text of the source: active = IC50 below about 9 µM; inactive = the rest.

Molecular target: Tyrosine-protein kinase JAK2 (Homo sapiens) (UniProt O60674)
Test: JAK2V617F kinase, IRF1 reporter and Ba/F3 cytotoxicity panel, late-stage follow-up, HEL and Ba/F3 cells (AID 2165)

Chain of Tyrosine-protein kinase JAK2 (Homo sapiens) (O60674 whole entry, looked up, change not shown): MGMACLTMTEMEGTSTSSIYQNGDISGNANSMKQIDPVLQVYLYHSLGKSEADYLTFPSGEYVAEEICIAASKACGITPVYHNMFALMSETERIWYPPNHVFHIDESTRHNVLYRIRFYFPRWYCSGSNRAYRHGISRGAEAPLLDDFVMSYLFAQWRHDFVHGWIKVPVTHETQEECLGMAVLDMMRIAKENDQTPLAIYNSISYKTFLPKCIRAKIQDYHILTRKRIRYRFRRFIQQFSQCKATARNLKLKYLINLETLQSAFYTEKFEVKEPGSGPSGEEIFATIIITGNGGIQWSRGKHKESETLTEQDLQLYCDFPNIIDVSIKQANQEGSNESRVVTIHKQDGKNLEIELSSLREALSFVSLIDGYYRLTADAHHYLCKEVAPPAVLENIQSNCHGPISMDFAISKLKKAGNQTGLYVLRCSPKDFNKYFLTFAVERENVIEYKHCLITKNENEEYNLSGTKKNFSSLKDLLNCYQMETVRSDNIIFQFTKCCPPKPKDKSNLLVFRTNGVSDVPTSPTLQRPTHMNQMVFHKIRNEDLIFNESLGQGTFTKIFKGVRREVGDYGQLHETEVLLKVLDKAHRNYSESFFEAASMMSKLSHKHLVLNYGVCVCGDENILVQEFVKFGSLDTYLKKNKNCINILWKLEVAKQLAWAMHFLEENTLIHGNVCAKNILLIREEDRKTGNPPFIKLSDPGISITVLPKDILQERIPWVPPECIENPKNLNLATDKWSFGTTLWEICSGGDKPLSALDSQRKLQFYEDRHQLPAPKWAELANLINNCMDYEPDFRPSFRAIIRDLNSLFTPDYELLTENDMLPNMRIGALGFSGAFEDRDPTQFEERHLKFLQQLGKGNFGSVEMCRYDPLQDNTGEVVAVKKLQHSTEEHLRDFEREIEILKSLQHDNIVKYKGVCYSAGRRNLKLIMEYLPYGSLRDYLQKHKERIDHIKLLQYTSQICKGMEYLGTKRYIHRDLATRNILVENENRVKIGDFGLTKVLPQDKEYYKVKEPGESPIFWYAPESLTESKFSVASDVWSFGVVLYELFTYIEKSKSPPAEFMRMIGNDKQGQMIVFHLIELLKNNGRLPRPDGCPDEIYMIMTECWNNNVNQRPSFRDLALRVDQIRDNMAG

SMILES	IC50 (JAK2V617F)	IC50 (Ba/F3, irf1 reporter)	IC50 (HEL, irf1 reporter)
Cc1cccc(OCC(=O)Nc2ccc(C)c(C)c2)c1	> 40 µM (inactive)	–	–
Cc1cc(SCC(=O)N/N=C/c2ccc(O)c(O)c2)c(C)cc1Br	–	2.02 µM	> 40 µM (inactive)
Cc1nc([N+](=O)[O-])c(Br)n1Cc1ccc(Cl)c(Cl)c1	–	2.62 µM	4.58 µM
COc1cc2ncnc(Nc3cccc(Br)c3)c2cc1OC	4.94 µM	1.31 µM	3.16 µM
COC(=O)COc1cccc2c(=O)n(CC(=O)NCc3ccc(F)cc3)ccc12	–	16.3 µM	7.33 µM
COc1cccc(/C=N/NC(=O)c2[nH]c(C)c(C(=O)N/N=C/c3cccc(OC)c3O)c2C)c1O	–	19.8 µM	9.67 µM
CCCn1c(CC)nc([N+](=O)[O-])c1S(=O)(=O)c1ccccc1	–	4.37 µM	4.36 µM
COc1ccc([N+](=O)[O-])c(S(=O)(=O)c2ccc(Cl)cc2)n1	–	0.395 µM	10.4 µM
Cc1c(Cc2ccccc2)c(=O)oc2c(O)c(O)ccc12	–	6.58 µM	31.9 µM
Cc1[nH]c(=O)c(C(=O)C=Cc2cccc(Br)c2)c2c1CCCC2	0.55 µM	0.59 µM	1.13 µM
C=CCNc1ncnc2cc(OC)c(OC)cc12	> 40 µM (inactive)	–	> 40 µM (inactive)
Nc1nc(CCl)nc(N(c2ccccc2)c2ccccc2)n1	–	14.3 µM	2.64 µM
CCCOc1ccc(C(=O)C(CN2CCOCC2)c2ccccc2)cc1 (centres undefined)	–	> 40 µM (inactive)	11.4 µM
COc1ccccc1OCC(=O)Nc1cc(C)ccc1O	0.0392 µM	–	–
CCCCCCN(C(=O)CCl)c1ccccc1	–	3.62 µM	8.71 µM
COc1ccccc1-c1nnc(Sc2nc([N+](=O)[O-])nn2C)o1	–	35.5 µM	13.6 µM
Cc1cccc(CS(=O)(=O)c2nnc([C@H](Cc3ccccc3)NC(=O)OC(C)(C)C)o2)c1	–	1.39 µM	11.6 µM
N#CC(=Cc1ccc(O)c(O)c1)C(=S)NCc1ccccc1	1.92 µM	0.62 µM	> 40 µM (inactive)
Cc1[nH]c(=O)c(C(=O)C=Cc2ccc(C(C)C)cc2)c2c1CCCC2	2.29 µM	0.84 µM	6.33 µM
Clc1cccc(Nc2ncnc3ccccc23)c1	> 40 µM (inactive)	–	> 40 µM (inactive)

SMILES	IC50 (JAK2V617F)	IC50 (Ba/F3, irf1 reporter)	IC50 (HEL, irf1 reporter)
O=C1C=CCC(/C=C/c2ccccc2)O1 (centres undefined)	–	7.41 µM	2.05 µM
Nc1nc(N)c2nc(-c3ccccc3)c(N)nc2n1	–	> 40 µM (inactive)	> 40 µM (inactive)
N#Cc1ccccc1NC(=O)COc1ccc2c(c1)OCO2	> 40 µM (inactive)	–	> 40 µM (inactive)
N#CC(C#N)=Cc1cc(O)c(O)c(I)c1	8.82 µM	5.01 µM	19.6 µM
c1ccc2c(CN3CCCCCC3)c[nH]c2c1	–	14.3 µM	15.9 µM
C#CCSc1nsc(SCC#C)c1C#N	–	6.71 µM	> 40 µM (inactive)
COc1ccc(Nc2nc(N)nc(CCl)n2)cc1	–	> 40 µM (inactive)	3.96 µM
N#C/C(=C\c1ccc(O)c(O)c1)C(=O)NCCc1ccccc1	0.79 µM	0.2 µM	5.15 µM
Cc1ccc(O)c(NC(=O)COc2ccc(F)cc2)c1	21.8 µM	–	–
CCC(C)c1ccc(OCC(=O)Nc2cc(C)ccc2O)cc1 (centres undefined)	33.2 µM	–	–
Cc1ccc(NC(=O)C(=Cc2ccc(C(=O)O)cc2)C(=O)Nc2ccc(C)cc2C)c(C)c1	–	2.9 µM	2.8 µM
Cc1cc(C)cc(NC(=O)COc2cccc(C)c2)c1	> 40 µM (inactive)	–	–
Cc1[nH]c(=O)c(C(=O)C=Cc2ccccc2Cl)c2c1CCCC2	0.13 µM	0.214 µM	0.53 µM
Cc1ccc(O)c(NC(=O)COc2ccc(C3CCCCC3)cc2)c1	> 40 µM (inactive)	–	–
O=C(CCl)N=c1sccn1Cc1ccccc1Cl	–	9.38 µM	1.62 µM
Cc1ccc(O)c(NC(=O)COc2ccccc2C)c1	> 40 µM (inactive)	–	–
Cc1[nH]c2ccccc2c(=O)c1C(=O)/C=C/c1ccccc1	–	> 40 µM (inactive)	3.98 µM
COc1ccc(Cl)cc1NC(=O)NC(C)c1ccncc1 (centres undefined)	> 40 µM (inactive)	–	> 40 µM (inactive)
Cc1cccc(OCC(=O)Nc2cccc(C)c2C)c1	> 40 µM (inactive)	–	–
Cc1nnc(NC(=O)COc2ccccc2)s1	> 40 µM (inactive)	–	> 40 µM (inactive)

SMILES	IC50 (JAK2V617F)	IC50 (Ba/F3, irf1 reporter)	IC50 (HEL, irf1 reporter)
N#C/C(=C\c1ccc(O)c(O)c1)C(=O)NCCCCc1ccccc1	0.76 µM	0.25 µM	3.31 µM
Cc1nn(Cc2ccc(Cl)cc2Cl)c(C)c1NC(=O)CCl	–	8.77 µM	8.61 µM
CC(C)[C@@H](CO)Nc1nc(Nc2cccc(Cl)c2)c2ncn(C(C)C)c2n1	0.91 µM	0.84 µM	1.13 µM
O=C(CSc1nnnn1-c1ccc(F)cc1)c1ccc(O)c(O)c1	–	12.4 µM	16.5 µM
Cc1ccc2nc(C)cc(Nc3ccc([N+](=O)[O-])cc3)c2c1	–	3.43 µM	5.98 µM
COc1cc2ncnc(Nc3ccc(F)c(F)c3)c2cc1OC	> 40 µM (inactive)	–	> 40 µM (inactive)
Cc1cccc(OCC(=O)Nc2cc(C)ccc2O)c1	–	3.94 µM	> 40 µM (inactive)
COc1ccc(N2CCc3c(C)nc4c(OC)cc(OC)cc4c32)c(OC)c1	–	7.67 µM	–
COc1cc(C=C(C#N)C(N)=O)cc(CSc2ccccc2)c1O	> 40 µM (inactive)	> 40 µM (inactive)	> 40 µM (inactive)
Cc1cccc(NC(=O)COc2cccc(C)c2)c1	> 40 µM (inactive)	–	–
Cc1cc(C)c(C(=O)/C=C/c2ccccc2F)c(=O)[nH]1	0.71 µM	24 µM	1.17 µM
c1ccc2c(c1)CSc1sccc1C2=C1CCNCC1	–	5.89 µM	> 40 µM (inactive)
Cc1nn2c(NCc3ccccn3)c3c(nc2c1-c1ccccc1)CCC3	–	10.7 µM	9.49 µM
Oc1ccccc1OCCOc1ccccc1OCCOc1ccccc1O	–	6.74 µM	15.9 µM
COCCOc1cc2nc[nH]c(=O)c2cc1OCCOC	> 40 µM (inactive)	–	> 40 µM (inactive)
COc1ccc(Nc2ccc3c(c2)=NC2(CCCCC2)[N+]=3[O-])cc1	–	5.6 µM	5.14 µM
O=C(CCl)NC(=O)NC12CC3CC(CC(C3)C1)C2	–	3.56 µM	7.9 µM
Cc1cccc(Nc2nc(N)nc(CCl)n2)c1C	–	14.9 µM	1.17 µM
CC1CCN(CCCNC(=O)c2cc3c(Cl)nc4ccccc4c3s2)CC1	–	9.98 µM	> 40 µM (inactive)
